Entries after “also recorded” stand apart in the source; their conditions may differ.
Key:
[1] = test system: serum total IgE and allergen-specific IgE; assay: Clinical trial: serum total and allergen-specific IgE (ImmunoCAP); assay type: in vivo, human
[2] = Clinical trial: adverse events; assay type: in vivo, human; details: oral melatonin 3 mg/d, 4 weeks, children with AD
Protocol: Visits occurred at the start of the prescreening and on the first and last day of each treatment period, during which AD disease severity was assessed, blood and urine samples were collected, questionnaires evaluating subjective symptoms were filled out, and pill count and adverse events were recorded.

[3] = test system: DNCB-induced AD mouse model; assay: Example 5: histological examination of skin (H&E, toluidine blue, anti-CD3); assay type: in vivo, Balb/c mice; details: for Cumulative histological scores: positive control 14.8 ± 2.4; for Hyperplasia, epidermis and follicular epithelium, slight to moderate/severe: incidence / Hyperplasia, sebaceous gland and hair follicle, dermis and subcutis, slight to moderate: incidence / Inflammation, neutrophil, lymphocyte and mast cell, epidermis, dermis and subcutis, minimal to severe/high: incidence / Infundibular hyperkeratosis, hair follicle, dermis, minimal to slight: incidence / Necrosis, epidermis, slight: incidence / Pustule, epidermis, slight: incidence / Serocellular crust/parakeratosis, epidermis, slight: incidence / Vacuolization, epidermis, minimal to slight: incidence: skin, Day 20, 5 mice
Protocol: (§1) The protocol for establishing an AD mouse model in this Example was modified from those described previously. Briefly, referring to FIG. 4, DNCB-induced AD mouse model was prepared by the repeated applications of 20 μL of 1% DNCB in acetone/olive oil (4:1) to the outer and inner surfaces of mouse ears and 100 μL of the same solution to the shaved back skin once on days 1, 2, and 3. Mice of Control group were treated with the identical volumes of vehicle.
(§2) The DNCB-sensitized mice were randomly assigned to one of three groups: DNCB (Positive control), DNCB+3% topical melatonin (Treatment: low-dose), DNCB+5% topical melatonin (Treatment: high-dose). Each group (including Control group) consisted of 5 mice. From days 9 to 19, sensitized mice were challenged by applying 0.5% DNCB to the skin surfaces. For the two groups treated with topical melatonin groups, 0.3 mg of topical melatonin ointment (3% or 5% melatonin in Vaseline) was given together with DNCB during the challenge period. For DNCB group, 0.3 mg of Vaseline was given together with DNCB during the challenge period. For Control group, 0.3 mg of Vaseline was given from days 9 to 19. This experiment was ended at Day 20.
At the end of the experiment (Day 20), all the experimental animals were subjected to euthanization by carbon dioxide and the skin samples were collected for subsequent immunological and histological examinations. The skin of each mouse were fixed with 10% neutral-buffered formalin, and embedded in paraffin. Then, 4-μm-thick sections were cut and transferred onto slides. Deparaffinized skin sections were stained with hematoxylin and eosin (H&E) before they were examined at 200× magnification for evaluation of edema and polymorphonuclear leukocytes (PMN) number. To detect mast cell infiltration, deparaffinized skin sections were stained with toluidine blue. Polyclonal rabbit antibody against CD3 was used to stain T cells. The numbers of mast cells and T cells per 10 high power fields (HPF) were counted.
Further, degree of histopathological lesions of skin from each mouse was graded from one to five depending on severity: 1=minimal (<1%); 2=slight (1-25%); 3=moderate (26-50%); 4=moderate/severe (51-75%); and 5=severe/high (76-100%).

IL-17 = assay: Example 5: dorsal skin IL-17 mRNA by RT-PCR; assay type: in vivo, Balb/c mice
Protocol: as §1
as §2, with “For DNCB group, 0.3 mg of Vaseline was given together with DNCB during the challenge period. For Control group, 0.3 mg of Vaseline was given from days 9 to 19. This experiment was ended at Day 20.” left out
Blood and dorsal skin of each mouse were collected on the last day of the experiment (Day 20) and stored at −80° C. until use. Serum IgE levels were measured using the ImmunoCAP fluorescence enzyme immunoassay (Phadia AB, Sweden) according to the manufacturer's instructions. The dorsal skin mRNA expression of the cytokines IL-4, IL-13, and IL-17 were measured by RT-PCR.

[4] = Treatment (high-dose): DNCB+5% topical melatonin, mean±SD, graded one to five
[5] = Treatment (high-dose): DNCB+5% topical melatonin
[6] = Treatment (low-dose): DNCB+3% topical melatonin, mean±SD, graded one to five
[7] = Treatment (low-dose): DNCB+3% topical melatonin

## COc1ccc2[nH]cc(CCNC(C)=O)c2c1 [Melatonin, melatonin]
[1]; after oral melatonin 3 mg/d at bedtime for 4 weeks, mean, serum
  IgE level, After: 2483.8 kU/L
[1]; after vs before oral melatonin 3 mg/d, 4 weeks, mean
  IgE level, Difference: 108.4 kU/L
[1]; melatonin phase, before treatment, mean, serum
  IgE level, Before: 2337.2 kU/L
[1]; melatonin vs placebo, P>0.05
  effect on allergen-specific IgE levels to Derp, Derf, or S aureus enterotoxins A or B: no significant difference
  effect on total IgE level: no significant difference
[1]; melatonin vs placebo, adjusted for age and sex
  IgE level, Difference of Treatment Effect From the Linear Mixed-Effects Model, Mean: −113.6 kU/L
[2]
  adverse events: no adverse event was reported; also recorded: no adverse effect of medication was reported
[3]; 3% melatonin, p=0.04
  pathology scoring vs DNCB group: significant improvement
[3]; 3% topical melatonin compared with DNCB group, p=0.03
  number of anti-CD3 positive cells per 10 HPF: significantly reduced
[3]; 5% melatonin, p=0.02
  pathology scoring vs DNCB group: significant improvement
[3]; 5% topical melatonin compared with DNCB group, p=0.0007
  number of anti-CD3 positive cells per 10 HPF: significantly reduced
[3]; [4]
  Hyperplasia, epidermis and follicular epithelium, slight to moderate/severe: lesion score: 2.0 ± 0.0
  Hyperplasia, sebaceous gland and hair follicle, dermis and subcutis, slight to moderate: lesion score: 2.4 ± 0.5
  Inflammation, neutrophil, lymphocyte and mast cell, epidermis, dermis and subcutis, minimal to severe/high: lesion score: 3.8 ± 0.4
  Necrosis, epidermis, slight: lesion score: 0.4 ± 0.9
  Serocellular crust/parakeratosis, epidermis, slight: lesion score: 2.0 ± 0.0
  Vacuolization, epidermis, minimal to slight: lesion score: 0.8 ± 0.4
[3]; Treatment (high-dose): DNCB+5% topical melatonin, mean±SD
  Cumulative histological scores: 11.4 ± 1.1
[3]; [5]
  Hyperplasia, epidermis and follicular epithelium, slight to moderate/severe: incidence: 5/5
  Hyperplasia, sebaceous gland and hair follicle, dermis and subcutis, slight to moderate: incidence: 5/5
  Inflammation, neutrophil, lymphocyte and mast cell, epidermis, dermis and subcutis, minimal to severe/high: incidence: 5/5
  Infundibular hyperkeratosis, hair follicle, dermis, minimal to slight: incidence: 0
  Necrosis, epidermis, slight: incidence: 1/5
  Pustule, epidermis, slight: incidence: 0
  Serocellular crust/parakeratosis, epidermis, slight: incidence: 5/5
  Vacuolization, epidermis, minimal to slight: incidence: 4/5
[3]; [6]
  Hyperplasia, epidermis and follicular epithelium, slight to moderate/severe: lesion score: 2.4 ± 0.5
  Hyperplasia, sebaceous gland and hair follicle, dermis and subcutis, slight to moderate: lesion score: 2.0 ± 0.0
  Inflammation, neutrophil, lymphocyte and mast cell, epidermis, dermis and subcutis, minimal to severe/high: lesion score: 3.8 ± 0.4
  Infundibular hyperkeratosis, hair follicle, dermis, minimal to slight: lesion score: 0.8 ± 0.8
  Serocellular crust/parakeratosis, epidermis, slight: lesion score: 2.0 ± 0.0
  Vacuolization, epidermis, minimal to slight: lesion score: 0.6 ± 0.5
[3]; Treatment (low-dose): DNCB+3% topical melatonin, mean±SD
  Cumulative histological scores: 11.6 ± 1.8
[3]; [7]
  Hyperplasia, epidermis and follicular epithelium, slight to moderate/severe: incidence: 5/5
  Hyperplasia, sebaceous gland and hair follicle, dermis and subcutis, slight to moderate: incidence: 5/5
  Inflammation, neutrophil, lymphocyte and mast cell, epidermis, dermis and subcutis, minimal to severe/high: incidence: 5/5
  Infundibular hyperkeratosis, hair follicle, dermis, minimal to slight: incidence: 3/5
  Necrosis, epidermis, slight: incidence: 0
  Pustule, epidermis, slight: incidence: 0
  Serocellular crust/parakeratosis, epidermis, slight: incidence: 5/5
  Vacuolization, epidermis, minimal to slight: incidence: 3/5
[3]; after melatonin treatment, FIG. 8
  mast cell infiltration (toluidine blue): decreased
[3]; both the 3% and 5% melatonin treatment group, FIG. 6
  H&E staining of the skin: improved epidermal hyperplasia and less infiltration of lymphocytes
IL-17; 5% melatonin treatment compared with 3% melatonin treatment
  skin mRNA expression of IL-17, dose-response: decreased more
IL-17; after topical melatonin treatment (3% or 5%), FIG. 11B
  skin mRNA expression of IL-17: decreased
